Measured values: PubChem BioAssay (NCI)
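Assay format: 96-well plates, 48-hour exposure. GI50 is the concentration that inhibits growth by half. TGI: concentration producing complete growth inhibition.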

Columns and labels:
Experiment in all cases: NCI-60 cell line screen, 48 h; in the data active = GI50 below about 0.43 µM; inactive = the rest
[1] = test system: A498 renal
[2] = test system: NCI-H460 lung
[3] = test system: HOP-62 NSCLC
[4] = test system: RPMI-8226 leukemia
[5] = test system: LXFL 529 NSCLC
[6] = test system: M14 melanoma
[7] = test system: SN12C renal
[8] = test system: KM20L2 colon
[9] = test system: U251 CNS
[10] = test system: OVCAR-4 ovarian
[11] = test system: SK-OV-3 ovarian
[12] = test system: MDA-MB-435
[13] = test system: EKVX NSCLC
[14] = test system: SK-MEL-2 melanoma
[15] = test system: COLO 205 colon
[16] = test system: MALME-3M melanoma
[17] = test system: HOP-92 NSCLC
[18] = test system: A549 NSCLC
[19] = test system: HCT-116 colon
[20] = test system: SW-620 colon
[21] = test system: CCRF-CEM leukemia
[22] = test system: DLD-1 colon
[23] = test system: HL-60(TB) leukemia
[24] = test system: ACHN renal
[25] = test system: DMS 114 small cell lung
[26] = test system: UACC-62 melanoma
[27] = test system: SF-539 CNS
[28] = test system: HCT-15 colon
[29] = test system: OVCAR-5 ovarian
[30] = test system: SNB-75 CNS
[31] = test system: NCI-H522 lung
[32] = test system: SF-268 CNS
[33] = test system: XF 498 CNS
[34] = test system: IGROV1 ovarian
[35] = test system: MDA-N
[36] = test system: LOX IMVI melanoma
[37] = test system: UO-31 renal
[38] = test system: NCI-H226 lung
[39] = test system: MOLT-4 leukemia
[40] = test system: OVCAR-8 ovarian
[41] = test system: OVCAR-3 ovarian
[42] = test system: M19-MEL melanoma
[43] = test system: HOP-18 NSCLC
[44] = test system: TK-10 renal
[45] = test system: NCI-H23 lung
[46] = test system: SNB-19 CNS
[47] = test system: MDA-MB-231 breast
[48] = test system: CAKI-1 renal
[49] = test system: HS 578T breast
[50] = test system: RXF 393 renal
[51] = test system: SF-295 CNS
[52] = test system: T-47D breast
[53] = test system: UACC-257 melanoma
[54] = test system: KM12 colon
[55] = test system: DU-145 prostate
[56] = test system: 786-0 renal
[57] = test system: HCC-2998 colon
[58] = test system: PC-3 prostate
[59] = test system: SR leukemia
[60] = test system: BT-549 breast
[61] = test system: NCI/ADR-RES ovarian
[62] = test system: SK-MEL-5 melanoma
[63] = test system: K-562 leukemia
[64] = test system: HT29 colon
[65] = test system: SK-MEL-28 melanoma
[66] = test system: MCF7 breast
[67] = test system: DMS 273 small cell lung
[68] = test system: SNB-78 CNS

CCOC(=O)Nc1cc2c(c(N)n1)N=C(c1ccccc1)[C@H](C)N2
29.2 µM: TGI [42]
< 0.0001 µM: TGI [8] | TGI [12] | TGI [15] | TGI [23] | TGI [25] | TGI [31] | TGI [33]
inactive: GI50 [10] 16.2 µM | GI50 [30] 17.9 µM | GI50 [37] 10.1 µM | GI50 [43] 29.1 µM | GI50 [44] 14.2 µM
17.7 µM: TGI [36]
13.6 µM: TGI [14]
22.9 µM: TGI [3]
13.8 µM: TGI [6]
53.9 µM: TGI [29]
44.5 µM: TGI [37]
14.5 µM: TGI [39]
0.0173 µM: TGI [19]
22.4 µM: TGI [4]
25.1 µM: TGI [22]
active: GI50 [1] < 0.0001 µM | GI50 [3] < 0.0001 µM | GI50 [7] < 0.0001 µM | GI50 [9] < 0.0001 µM | GI50 [11] < 0.0001 µM | GI50 [27] 0.0269 µM | GI50 [28] < 0.0001 µM
78.8 µM: TGI [11]
> 100 µM: TGI [5] | TGI [7] | TGI [10] | TGI [13] | TGI [18] | TGI [20] | TGI [32] | TGI [34] | TGI [40] | TGI [43]
47.1 µM: TGI [17]
55 µM: TGI [24]
0.000122 µM: TGI [35]
0.0669 µM: TGI [27]
21.2 µM: TGI [26]
57.3 µM: TGI [44]
0.016 µM: TGI [41]
17.3 µM: TGI [28]
16.4 µM: TGI [16]
87.5 µM: TGI [46]
0.0464 µM: TGI [2] | TGI [21] | TGI [38] | TGI [45]

O=C(O)NCc1ccccc1 (tested in a mixture with another compound)
> 96.1 µM: TGI [41]
> 92.3 µM: TGI [60]
> 95.8 µM: TGI [10]
51.6 µM: TGI [57]
> 82.8 µM: TGI [49]
31.1 µM: TGI [4]
85.9 µM: TGI [16]
> 81.6 µM: TGI [52]
99.3 µM: TGI [6]
12.8 µM: TGI [59]
96.7 µM: TGI [31]
> 90 µM: TGI [61]
37.2 µM: TGI [26]
> 95.9 µM: TGI [53]
> 85.1 µM: TGI [13]
> 100 µM: TGI [3] | TGI [48] | TGI [51] | TGI [7] | TGI [11] | TGI [55] | TGI [56] | TGI [18] | TGI [19] | TGI [20] | TGI [24] | TGI [27] | TGI [28] | TGI [29] | TGI [32] | TGI [34] | TGI [64] | TGI [36] | TGI [65] | TGI [40] | TGI [66] | TGI [45] | TGI [46]
> 94.4 µM: TGI [35]
91.9 µM: TGI [37]
> 75.5 µM: TGI [50]
> 77.6 µM: TGI [9]
> 87.1 µM: TGI [2]
51.7 µM: TGI [21]
67.2 µM: TGI [17]
33.4 µM: TGI [62]
43.3 µM: TGI [15]
48.9 µM: TGI [23]
> 80.4 µM: TGI [54]
> 86.8 µM: TGI [12]
45.9 µM: TGI [39]
85.3 µM: TGI [1]
> 66.4 µM: TGI [58]
33.7 µM: TGI [14]
> 72.2 µM: TGI [47]
> 87.5 µM: TGI [44]
> 79.7 µM: TGI [38]
60.6 µM: TGI [30]
> 77 µM: TGI [63]

O=C1CCCC/C1=C1\C(=O)Nc2cc(F)ccc21
> 100 µM: TGI [1] | TGI [2] | TGI [3] | TGI [48] | TGI [50] | TGI [4] | TGI [5] | TGI [67] | TGI [51] | TGI [6] | TGI [7] | TGI [8] | TGI [9] | TGI [10] | TGI [11] | TGI [13] | TGI [53] | TGI [54] | TGI [14] | TGI [15] | TGI [56] | TGI [16] | TGI [57] | TGI [17] | TGI [18] | TGI [19] | TGI [20] | TGI [21] | TGI [22] | TGI [23] | TGI [24] | TGI [25] | TGI [26] | TGI [27] | TGI [28] | TGI [29] | TGI [68] | TGI [30] | TGI [62] | TGI [63] | TGI [31] | TGI [32] | TGI [33] | TGI [34] | TGI [64] | TGI [36] | TGI [37] | TGI [38] | TGI [65] | TGI [39] | TGI [40] | TGI [42] | TGI [43] | TGI [44] | TGI [45] | TGI [46]

O=c1c2ccccc2n2n1CC(O)C2 (configuration not stated)
> 24.6 µM: TGI [24]
inactive: GI50 [47] > 100 µM | GI50 [1] > 100 µM | GI50 [49] > 100 µM | GI50 [52] > 100 µM | GI50 [12] > 100 µM | GI50 [55] > 100 µM | GI50 [58] > 100 µM | GI50 [60] > 100 µM | GI50 [61] > 100 µM | GI50 [66] > 100 µM
> 100 µM: TGI [47] | TGI [1] | TGI [2] | TGI [3] | TGI [48] | TGI [49] | TGI [50] | TGI [4] | TGI [67] | TGI [51] | TGI [6] | TGI [7] | TGI [8] | TGI [9] | TGI [52] | TGI [10] | TGI [11] | TGI [12] | TGI [13] | TGI [53] | TGI [54] | TGI [14] | TGI [55] | TGI [15] | TGI [56] | TGI [16] | TGI [57] | TGI [17] | TGI [18] | TGI [19] | TGI [20] | TGI [21] | TGI [58] | TGI [22] | TGI [23] | TGI [27] | TGI [28] | TGI [59] | TGI [60] | TGI [29] | TGI [68] | TGI [61] | TGI [30] | TGI [62] | TGI [63] | TGI [31] | TGI [32] | TGI [33] | TGI [34] | TGI [64] | TGI [36] | TGI [37] | TGI [38] | TGI [65] | TGI [39] | TGI [40] | TGI [41] | TGI [42] | TGI [43] | TGI [66] | TGI [44] | TGI [45] | TGI [46]

CCOC(=O)[C@H](O)[C@@H](O)C(=O)NCc1ccc(C(=O)c2ccccc2)cc1
> 100 µM: TGI [47] | TGI [1] | TGI [2] | TGI [3] | TGI [48] | TGI [49] | TGI [50] | TGI [4] | TGI [51] | TGI [6] | TGI [7] | TGI [9] | TGI [52] | TGI [10] | TGI [11] | TGI [12] | TGI [13] | TGI [53] | TGI [54] | TGI [14] | TGI [55] | TGI [15] | TGI [56] | TGI [16] | TGI [57] | TGI [17] | TGI [18] | TGI [19] | TGI [20] | TGI [21] | TGI [58] | TGI [23] | TGI [24] | TGI [26] | TGI [27] | TGI [28] | TGI [59] | TGI [60] | TGI [29] | TGI [61] | TGI [30] | TGI [62] | TGI [63] | TGI [31] | TGI [32] | TGI [34] | TGI [35] | TGI [64] | TGI [36] | TGI [37] | TGI [38] | TGI [65] | TGI [39] | TGI [40] | TGI [41] | TGI [66] | TGI [44] | TGI [45] | TGI [46]

O=C1c2ccccc2C(=O)c2c1ccc1nc3c(nc21)-c1c2ccccc2cc2cccc-3c12
> 84.2 µM: TGI [52]
> 82.5 µM: TGI [1]
> 81.7 µM: TGI [55]
> 91.6 µM: TGI [3]
> 57.6 µM: TGI [24]
> 52.4 µM: TGI [49]
> 86.2 µM: TGI [26]
> 94.9 µM: TGI [54]
> 91.5 µM: TGI [66]
> 100 µM: TGI [47] | TGI [2] | TGI [48] | TGI [50] | TGI [4] | TGI [51] | TGI [6] | TGI [7] | TGI [9] | TGI [10] | TGI [11] | TGI [13] | TGI [53] | TGI [14] | TGI [15] | TGI [56] | TGI [16] | TGI [57] | TGI [17] | TGI [18] | TGI [19] | TGI [20] | TGI [21] | TGI [58] | TGI [23] | TGI [27] | TGI [28] | TGI [59] | TGI [60] | TGI [29] | TGI [61] | TGI [62] | TGI [63] | TGI [31] | TGI [32] | TGI [35] | TGI [64] | TGI [36] | TGI [37] | TGI [38] | TGI [65] | TGI [39] | TGI [40] | TGI [41] | TGI [44] | TGI [45] | TGI [46]
38.6 µM: TGI [12]
> 31.6 µM: TGI [30]
> 57.4 µM: TGI [34]
